The target in assay [1] is HEK-293 cells transfected with dox-inducible human wild type FGFR2 (Homo sapiens (Human), UniProt P21802). The experiment in a line: FGFR2 pFGFR cell assay (ELISA). Format: cell-based. The following applies: HEK-293 dox-inducible FGFR2, 1 hour compound, 30 ng/ml FGF-acidic. The gist of the method: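 Doxycycline-induced (1 μg/ml) cells preincubated with compound (1:3 serial dilutions, top final 5 μM) for 1 h at 37 °C, then stimulated with 30 ng/ml FGF-acidic for 5 min. Lysates assayed by ELISA capturing total FGFR2 and detecting phosphotyrosine (OD 450 nm). POC relative to no-compound and control-compound wells; IC50 from 4-parameter logistic fit.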

Assay [2] concerns the target HEK-293 cells transfected with dox-inducible human wild type FGFR1 (Homo sapiens (Human), UniProt P11362). The experiment in a line: FGFR1 pFGFR cell assay (ELISA). Format: cell-based. The following applies: HEK-293 dox-inducible FGFR1, 1 hour compound. The protocol:
FGFR1 pFGFR Cell Assay: • HEK-293 cells transfected with dox-inducible human wild type FGFR1 (SEQ ID NO: 1) were plated in a collagen or poly-D-lysine coated 96 well flat bottom plates at 4×10^5 cells/well in complete DMEM medium containing 10% FBS and 1 μg/ml doxycycline and allowed to attach for 24 h at 37° C., 5% CO2. Cells were treated with compound using 1:3 serial dilutions with a maximum final concentration of 5 μM. Compound was incubated on cells for 1 hour at 37° C., 5% CO2. Medium was removed, and cells were lysed with lysis buffer containing phosphatase and protease inhibitors. Phospho FGFR1 was measured by ELISA (R&D Systems cat. no. DYC5079 or Cell Signaling Technology cat. no. 12909). The ELISA captures total FGFR1 and detects total phospho tyrosine. Optical density was measured for each well using a Versamax reader at a wavelength of 450 nm. 100 POC was determined using no test compounds and 0 POC was determined using a control compound. The POC values were fit to a 4-parameter logistic curve as a function of the concentration of the compound, and the IC50 value is the point where the curve crosses 50 POC.
(In general: An ELISA detects its analyte on a solid surface through an enzyme-linked reagent.)

pIC50: −log10 of the molar value.

HEK-293 cells transfected with dox-inducible human wild type FGFR2, sequence (P21802 22-821): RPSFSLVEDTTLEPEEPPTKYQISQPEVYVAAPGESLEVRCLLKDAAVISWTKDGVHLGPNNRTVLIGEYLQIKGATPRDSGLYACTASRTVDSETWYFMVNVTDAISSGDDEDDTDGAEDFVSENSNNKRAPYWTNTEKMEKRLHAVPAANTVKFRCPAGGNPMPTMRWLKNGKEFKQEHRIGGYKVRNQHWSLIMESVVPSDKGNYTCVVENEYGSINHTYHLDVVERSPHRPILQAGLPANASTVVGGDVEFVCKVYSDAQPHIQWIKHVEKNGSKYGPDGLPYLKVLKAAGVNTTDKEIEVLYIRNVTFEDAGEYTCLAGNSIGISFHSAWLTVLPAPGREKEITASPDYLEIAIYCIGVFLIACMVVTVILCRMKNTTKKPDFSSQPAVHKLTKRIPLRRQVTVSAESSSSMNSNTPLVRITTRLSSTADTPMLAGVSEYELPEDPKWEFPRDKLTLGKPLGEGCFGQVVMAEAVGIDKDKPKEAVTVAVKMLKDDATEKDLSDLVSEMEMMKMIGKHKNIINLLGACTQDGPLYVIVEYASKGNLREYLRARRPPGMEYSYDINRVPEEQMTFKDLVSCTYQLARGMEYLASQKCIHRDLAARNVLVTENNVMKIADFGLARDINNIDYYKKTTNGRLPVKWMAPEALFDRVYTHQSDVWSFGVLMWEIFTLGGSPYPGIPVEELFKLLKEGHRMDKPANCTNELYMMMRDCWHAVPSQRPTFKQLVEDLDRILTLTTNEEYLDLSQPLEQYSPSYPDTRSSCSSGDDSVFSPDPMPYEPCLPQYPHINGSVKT
HEK-293 cells transfected with dox-inducible human wild type FGFR1, sequence (P11362 22-822): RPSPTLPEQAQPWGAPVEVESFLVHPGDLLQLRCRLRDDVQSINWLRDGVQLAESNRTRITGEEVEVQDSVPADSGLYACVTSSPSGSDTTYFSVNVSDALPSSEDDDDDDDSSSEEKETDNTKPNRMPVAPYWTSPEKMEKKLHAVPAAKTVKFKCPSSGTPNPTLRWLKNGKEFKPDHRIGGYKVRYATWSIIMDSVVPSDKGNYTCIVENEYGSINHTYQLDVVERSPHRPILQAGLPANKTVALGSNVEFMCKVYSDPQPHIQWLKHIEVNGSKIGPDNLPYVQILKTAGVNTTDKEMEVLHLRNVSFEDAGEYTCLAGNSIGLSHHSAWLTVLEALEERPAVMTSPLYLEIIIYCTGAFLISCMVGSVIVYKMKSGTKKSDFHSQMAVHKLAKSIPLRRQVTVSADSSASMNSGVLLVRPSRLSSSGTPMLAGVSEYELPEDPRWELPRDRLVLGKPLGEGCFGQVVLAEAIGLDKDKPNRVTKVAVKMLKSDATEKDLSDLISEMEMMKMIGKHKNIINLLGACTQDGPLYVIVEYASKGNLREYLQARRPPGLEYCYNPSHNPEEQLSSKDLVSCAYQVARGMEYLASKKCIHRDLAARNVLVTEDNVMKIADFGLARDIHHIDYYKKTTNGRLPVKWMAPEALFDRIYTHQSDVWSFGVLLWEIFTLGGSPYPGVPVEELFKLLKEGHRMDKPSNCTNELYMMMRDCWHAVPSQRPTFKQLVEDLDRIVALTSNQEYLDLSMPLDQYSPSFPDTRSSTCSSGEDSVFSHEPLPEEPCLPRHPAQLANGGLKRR

For orientation: pIC50 means −log10 of the IC50, conventionally taken in molar units. Read a low pIC50 as a large IC50. In assay [1], `C=CC(=O)N1CC(C(=O)N2C3CCC2CN(c2ccc(-c4cc(OC)c5c(C#N)cnn5c4)cn2)C3)C1` [Example 50, 6-(6-(8-(1-acryloylazetidine-3-carbonyl)-3,8-diazabicyclo[3.2.1]octan-3-yl)pyridin-3-yl)-4-methoxypyrazolo[1,5-a]pyridine-3-carbonitrile] gave a pIC50 of 6.75.
`C=CS(=O)(=O)Nc1cccc(C(=O)N2CCC(n3cc(-c4cc(OC)c5c(C#N)cnn5c4)cn3)CC2)c1` [Example 188, N-(3-(4-(4-(3-cyano-4-methoxypyrazolo[1,5-a]pyridin-6-yl)-1H-pyrazol-1-yl)piperidine-1-carbonyl)phenyl)eth-enesulfonamide]: the pIC50 in assay [1] is 6.80.
Still for that read-out and setting: to `C=CC(=O)N1CC(C(=O)N2CC3CCC(C2)N3c2ccc(-c3cc(OC)c4c(C#N)cnn4c3)cn2)C1` [Example 51, 6-(6-(3-(1-acryloylazetidine-3-carbonyl)-3,8-diazabicyclo[3.2.1]octan-8-yl)pyridin-3-yl)-4-methoxypyrazolo[1,5-a]pyridine-3-carbonitrile] belongs 6.36; to `C=CC(=O)N1CC(CN2CCC(n3ncc(-c4cc(OC)c5c(C#N)cnn5c4)c3C)CC2)(OC)C1` [Example 91, 6-(1-(1-((1-acryloyl-3-methoxyazetidin-3-yl)methyl)piperidin-4-yl)-5-methyl-1H-pyrazol-4-yl)-4-methoxypyrazolo[1,5-a]pyridine-3-carbonitrile], 6.97; to `C=CC(=O)N1CC(CN2CCC(n3ncc(-c4cc(OC)c5c(C#N)cnn5c4)c3C)CC2)C1` [Example 89, 6-(1-(1-((1-acryloylazetidin-3-yl)methyl)piperidin-4-yl)-5-methyl-1H-pyrazol-4-yl)-4-methoxypyrazolo[1,5-a]pyridine-3-carbonitrile], 7.02.
On the same count and under the same terms, the same measure for `C=CC(=O)N1CC(C)(CN2CCC(n3ncc(-c4cc(OC)c5c(C#N)cnn5c4)c3C)CC2)C1` [Example 90, 6-(1-(1-((1-acryloyl-3-methylazetidin-3-yl)methyl)piperidin-4-yl)-5-methyl-1H-pyrazol-4-yl)-4-methoxypyrazolo[1,5-a]pyridine-3-carbonitrile]: 6.96.
Still for that read-out and setting: the same measure for `C=CC(=O)N1CC(OC)(C(=O)N2CCC(n3ncc(-c4cc(OC)c5c(C#N)cnn5c4)c3C)CC2)C1` [Example 88, 6-(1-(1-(1-acryloyl-3-methoxyazetidine-3-carbonyl)piperidin-4-yl)-5-methyl-1H-pyrazol-4-yl)-4-methoxypyrazolo[1,5-a]pyridine-3-carbonitrile]: 6.84; for `C=CC(=O)N1CC(C(=O)N2C3CC2CN(c2ccc(-c4cc(OC)c5c(C#N)cnn5c4)cn2)C3)C1` [Example 52, 6-(6-(6-(1-acryloylazetidine-3-carbonyl)-3,6-diazabicyclo[3.1.1]heptan-3-yl)pyridin-3-yl)-4-methoxypyrazolo[1,5-a]pyridine-3-carbonitrile]: 6.12; for `C=CC(=O)N1CC(F)(C(=O)N2CCC(n3ncc(-c4cc(OC)c5c(C#N)cnn5c4)c3C)CC2)C1` [Example 85, 6-(1-(1-(1-acryloyl-3-fluoroazetidine-3-carbonyl)piperidin-4-yl)-5-methyl-1H-pyrazol-4-yl)-4-methoxypyrazolo[1,5-a]pyridine-3-carbonitrile]: 7.21.
In assay [1], `C=CC(=O)N1CC(C(=O)N2CCC(n3cc(-c4cc(OC)c5c(C#N)cnn5c4)cn3)CC2)C1(C)C` (centres unmarked) [Example 43, 6-(1-(1-(1-acryloyl-2,2-dimethylazetidine-3-carbonyl)piperidin-4-yl)-1H-pyrazol-4-yl)-4-methoxypyrazolo[1,5-a]pyridine-3-carbonitrile] had a pIC50 of 7.10.
Regarding `C=CC(=O)Nc1ccc(C(=O)N2CCC(n3cc(-c4cc(OC)c5c(C#N)cnn5c4)cn3)CC2)cc1` [Example 177, N-(4-(4-(4-(3-cyano-4-methoxypyrazolo[1,5-a]pyridin-6-yl)-1H-pyrazol-1-yl)piperidine-1-carbonyl)phenyl)acrylamide], in assay [2], the pIC50 was 6.91.

Source of the values: patent publication US12180207B2 (ARRAY BIOPHARMA INC., priority 2018, dated 2024).
